Test: Dose-limiting toxicity, MTD and RP2D determination
Type: in vivo
Settings: for Number of DLT: 3 evaluable; for Patients with DLT / number of DLT: 6 evaluable
Procedure: For part A (dose escalation; Figure 1, A and B), the starting dose of 20 mg was selected based on animal toxicity studies. Dosing was continuous, and escalation used a modified Fibonacci method. Initial dose escalation was planned in single patient cohorts, changing to 3+3 design after the first grade-2 toxicity was seen. […] DLT definitions are in the Supplemental Methods.
For part B, all patients received the RP2D as defined for part A. Part B allowed for different schedules (continuous/intermittent) to be assessed. Initially, a continuous dosing schedule was used for the first 6 patients. […] Pretreatment biopsy was mandatory in part B. DNA-Seq of archival tumor material or review of external tumor sequencing was used to enrich for patients with putative genomic markers of sensitivity to ATRi, based on preclinical data, including oncogene amplification or driver mutation, ATM/G1 pathway defects (alteration in ATM, CHK2, or other components of the pathway causing G1 cell-cycle arrest after DNA damage), SWI/SNF (switch/sucrose nonfermentable, a chromatin-remodeling complex) pathway defect, genomic instability/homologous recombination deficit (HRD), or defect in a gene synthetically lethal with ATRi in published data ([46], [47]) (Figure 1B and Supplemental Table 3). […]
Criteria for Dose Limiting Toxicity
1. Hematological toxicity
1. Grade 3 thrombocytopenia with bleeding
2. Grade 4 thrombocytopenia
3. Grade 4 neutropenia lasting >7 days in the absence of growth factor […]
and/or systemic infection
5. Any other grade ≥4 hematological toxicity
2. Cardiovascular toxicity
1. Clinically significant hypotension defined as an asymptomatic fall in systolic blood pressure more than 20mmHg to below 70mmHg persisting for at least 10 minutes
2. Symptomatic orthostatic fall in systolic blood pressure of more than 20mmHg compared to resting supine blood pressure
3. Prolongation of QTc >0.5 seconds (using an appropriate correction […]
3. Gastrointestinal/hepatic toxicity
1. ALT or AST >5 times ULN; ALP >5 times ULN with elevated gamma- GT
2. ALT or AST >3 times ULN (or ALP >3 times ULN with elevated gamma-GT) with the appearance of symptoms associated with a clinical diagnosis of hepatitis including right upper quadrant pain or tenderness, fever, rash, or eosinophilia (>5%)
3. [ALT or AST >3 times ULN] and [total bilirubin >2 times ULN] or INR >1.5x ULN (unless patient receiving warfarin) (or other evidence of impaired liver synthetic function)
4. Any other grade 3-4 non-hematological toxicity occurring during the time period from the first dose to the end of the first cycle
2. Excluding grade 3 nausea or vomiting if ameliorated by medical management
3. Excluding grade 3 fatigue unless there is an increase by 2 grades from baseline
5. Any dose in cycle 1, or the start of cycle 2, delayed by more than 7 days due to toxicity or patient unable to complete cycle 1 at the planned dose due to toxicity (parts A and B only)
6. Any other toxicity that is greater than baseline, is clinically significant and/or unacceptable, does […]
is considered to be dose-limiting by the investigators.

C[C@@H]1COCCN1c1cc(C2([S@](C)(=N)=O)CC2)nc(-c2cc[nH]c3nccc2-3)n1 [ceralasertib]
Number of DLT (20 mg BD): 0
Number of DLT (40 mg BD): 0
Patients with DLT / number of DLT (80 mg BD): 1
Patients with DLT / number of DLT (240 mg BD): 3
Recommended phase 2 dose (RP2D) (BD (twice daily), intermittent: 2 weeks on, 2 weeks off, 4-weekly cycle): 160 mg
Maximum tolerated dose (BD, continuous dosing, dose escalation): 160 mg

From article PMC10786692 (The Journal of Clinical Investigation, 2024)
